According to a melting point compilation (Tetko et al.; mined from patent text by program, amines drawn as free bases though some values may be those of a salt):

`Cn1cc(C(=O)NCc2ccc(Cl)cc2)c(=O)c2cc(CCl)ccc21` gave a melting point of 241 to 242 °C. `CCN1CN(c2cccc(F)c2)c2ncccc2C1=O` showed a melting point of 123 to 124 °C. `CC(=O)NC1=C(C#N)C(c2cccc([N+](=O)[O-])c2)=C2C=Cc3ccccc3C2O1` (configuration not stated) showed a melting point of 234 to 236 °C. For `CCCCCCCC(=O)Nc1ccc([N+](=O)[O-])cc1`, the melting point was 80.9 to 81.6 °C. `CCCCS(=O)(=O)NC1Cc2ccc(C3=NNC(=O)C(c4ccccc4)C3)cc2C1` (configuration not stated) showed a melting point of 216 to 217 °C. `CCC(Oc1cccc(C(F)(F)F)c1C)C1=NCCN1` (configuration not stated) gave a melting point of 120 to 122 °C. `CC(=O)Nc1ccc(Oc2c(NCc3ccccc3)cc(C(=O)O)cc2S(N)(=O)=O)cc1` gave a melting point of 255 °C. In the case of `C=CCOCC1CC(N)c2cc(S(N)(=O)=O)sc2S1(=O)=O` (configuration not stated), the melting point is reported as 167 to 168 °C. For `O=C1CC(c2ccc(Cl)cc2)CO1` (configuration not stated), the melting point was 52 to 54 °C. For `Cc1ccc(Cc2c[nH]c(NCCSCc3ccco3)nc2=O)cn1`, the melting point was 147 to 152 °C. Compound `COc1ccc(CC2CCCN(c3nc(C)c(C(=O)NCc4ccccc4)s3)C2=O)cc1` (configuration not stated) has a melting point of 116 to 118 °C. With `COc1ccc(-n2cnc3c(O)nc4ccccc4c32)cc1` the melting point was > 300 °C. Compound `Clc1ccc(OC2CN(C(c3ccccc3)c3ccccc3)C2)cc1Cl` has a melting point of 114 to 115 °C. `CCN(CC)C(=O)c1cncc(OC2SCC(O)C(O)C2O)c1` (configuration not stated) gave a melting point of 143 °C. `Cc1cc(Cl)n(-c2ccc(Cl)cc2F)n1` gave a melting point of 95 to 97 °C. In the case of `COc1cc2c(cc1-c1cccnc1)-c1c(-c3cccs3)c3c(n1CC2)C(=O)N(C(C)C)CCN(C(C)=O)C3`, the melting point is reported as 225 to 226 °C. `Cc1cc(NC(=O)CCCCCBr)ccc1O` showed a melting point of 111 to 112 °C. `CC(C)(C)OC(=O)N1CCC(Oc2ccc(C(=O)Cc3ccccn3)cc2)CC1` gave a melting point of 138 to 140 °C. For `CCCCc1nc2c(N)nc3ccccc3c2n1CCCC(C)=O`, the melting point was 173 to 176 °C. In the case of `CS(=O)(=O)O[C@H](COCc1ccccc1)[C@@H](COCc1ccccc1)OS(C)(=O)=O`, the melting point is reported as 72 to 73 °C. `CC(C)C(OC(=O)C(C)(C)C)n1nnc(-c2ccccc2-c2ccc(Oc3c(C4CC4)nc4ccccc4c3C(=O)O)cc2)n1` (configuration not stated) showed a melting point of 165 to 168 °C. Compound `COc1cc(OC)c(-c2cc3ccccc3s2)cc1/C=C/C(=O)c1ccc(C(=O)NC(=O)C(C)C)cc1` has a melting point of 208 to 209 °C. Work on `CNS(=O)(=O)N1CCNC1=O` yielded a melting point of 184 °C. For `CCc1cccc(NC(=N)Nc2cccc3ccccc23)c1`, the melting point was 96 to 98 °C. Compound `CC(=O)NC[C@H]1CN(c2ccc(N3C[C@@H]4C[C@H]3CO4)c(F)c2)C(=O)O1` has a melting point of 60 to 65 °C. With `CNC(=O)c1ccc2cc(C(=O)O)ccc2c1` the melting point was > 276 °C. With `COc1ccc(Cc2nnc3c4ccccc4c(Nc4cccc(-c5nnn(C)n5)c4)nn23)cc1` the melting point was 262 to 264 °C. `O=C(O)CN1CCC[C@H](OCc2cc(C(F)(F)F)cc(C(F)(F)F)c2)[C@@H]1c1ccccc1` gave a melting point of 60 to 63 °C. For `CC(C)N(C(=O)C(F)(F)F)c1cc2c(cc1C(=O)c1ccccc1)OCO2`, the melting point was 100 to 102 °C. For `COC(=O)C(C)=Cc1cc(NC(=S)N2CCCCN2)ccc1Cl`, the melting point was 120 to 121 °C. In the case of `Cc1ccc2cc(CC(=O)O)c(=O)[nH]c2n1`, the melting point is reported as > 250 °C. `CC(=O)N1CCC(C(=O)N2CC[C@@H](N(C)C(=O)c3ccc(Br)cn3)[C@H](c3ccc(Cl)c(Cl)c3)C2)CC1` showed a melting point of 128 to 130 °C. `CC(=O)c1cc(C)cc(C)c1NC(=O)c1sccc1S(=O)(=O)Nc1onc(C)c1C` gave a melting point of 158 to 160 °C. With `C=C(C)c1ccc(C(=O)C2=C(O)C(=O)N(c3ccc(C)nn3)C2c2ccc(OC(F)(F)F)cc2)cc1` (configuration not stated) the melting point was 253 °C. `CN(C)C=Nc1nc(OCOC(=O)C(C)(C)C)ncc1F` gave a melting point of 86 to 88 °C. For `C=C(C)c1ccc(C(C)(C)OOC(C)(C)c2ccccc2)cc1`, the melting point was 40 °C. In the case of `Fc1cccc(F)c1CN[C@H]1CCCN[C@H]1c1ccccc1` (relative stereo), the melting point is reported as > 260 °C. Work on `Cn1ncc(Cl)c(NCCCN2CCC(c3noc4cc(F)ccc34)CC2)c1=O` yielded a melting point of 117 to 119 °C. For `NC(=O)CC[C@H](NC(=O)c1ccc(OCc2ccccc2)cc1OCc1ccccc1)C(=O)N1CCN(c2ccccc2)CC1`, the melting point was 157 to 158 °C. With `O=C(N[C@H]1CC[C@H](CCN2CCN(c3nccc4c3OCC4)CC2)CC1)c1ccc2c(c1)OCO2` the melting point was 214 °C. `COc1ccc2[nH]c(C(=O)c3ccc(F)cc3)cc2c1` showed a melting point of 167 to 169 °C. Compound `CC(C)(C)c1ccc(C(=O)Nc2cn3cc(C(F)(F)F)ccc3n2)cc1` has a melting point of 234 to 235 °C. `CC(=O)OC1CSC(Oc2ccccc2-c2ccno2)C(OC(C)=O)C1OC(C)=O` (configuration not stated) gave a melting point of 75 °C. For `CO/N=C(/C(C)=O)C(=O)OC(C)(C)C`, the melting point was 80 to 85 °C. `Cn1nc(C(=O)O)c(=O)n(-c2ccccc2)c1=O` showed a melting point of 195 to 198 °C. For `CC(=O)OC1CSC(Oc2ccc(C)nc2-c2ccoc2)C(OC(C)=O)C1OC(C)=O` (configuration not stated), the melting point was 117 °C. Work on `CON1C=C2N=NC3=C(N2C1)N(c1cccc(Cl)c1)CC(C1CC1)=C3` yielded a melting point of 155 °C. In the case of `CCCCn1c(C(=O)c2cc(C)cc(CCC#N)c2)c(C(C)C)c(=O)[nH]c1=O`, the melting point is reported as 172 to 173 °C. `OCCCN1CCN(C(c2ccccc2)c2ccccc2)CC1` showed a melting point of 126 to 128 °C. `O=C1C(Cl)=C(c2ccccc2)C(=O)N1c1ccccc1Cl` showed a melting point of 132 to 133 °C. For `c1ccc(COc2ccc(NC3Cc4ccccc4C3)cc2)cc1`, the melting point was 72 to 75 °C. `CC(C)(C)c1cc([PH](=O)O)cc(C(C)(C)C)c1O` showed a melting point of 106 to 111 °C. For `Cc1cn(C)c(C)c1-c1ccnc(Nc2ccc(F)cc2)n1`, the melting point was 124 to 128 °C. In the case of `NNc1nncc(-c2ccccc2)n1`, the melting point is reported as 144 to 146 °C. Compound `COc1ccc(S(=O)(=O)N2CCCC2)cc1` has a melting point of 88 to 89 °C. Compound `c1cc(CN2CCCCC2)cc(OCCCNc2ccnc3ccccc23)c1` has a melting point of 127 to 128 °C. Compound `CC(C)(C)NS(=O)(=O)c1cnc(-c2cn(-c3cc(C(F)(F)F)cc(-c4ccc(C(F)(F)F)cc4)n3)cn2)s1` has a melting point of 236 °C. With `COc1ccc(C2COc3c(ccc(O)c3O)C2)cc1OC` (configuration not stated) the melting point was 176 °C. In the case of `CNC(=O)C(Cc1ccc(OC)cc1)NC(=O)C(CC(C)C)C(S)CC(=O)NCC(N)=O` (configuration not stated), the melting point is reported as 247 to 252 °C. `O=[N+]([O-])c1ccc(Sc2nccn2-c2ccccc2)cc1` gave a melting point of 123 to 125 °C. Compound `Cn1cc(-c2ccccc2)c(=O)c(-c2cccc(I)c2)c1` has a melting point of 190 to 193 °C. Compound `C#CCOc1cc(N)ccc1C` has a melting point of 75 to 77 °C. In the case of `O=C(O)c1cc(NCc2c(F)c(F)c(C(F)(F)F)c(F)c2F)ccc1Cl`, the melting point is reported as 58 °C. Work on `Cc1ccc2c(c1)CC(=O)c1cc(C(C)C(=O)O)ccc1O2` (configuration not stated) yielded a melting point of 128 to 129 °C. Compound `Clc1cccc2c3c([nH]c12)CCCC3` has a melting point of 144 to 146 °C. For `CSc1ccc(-n2cnc3ccc(-c4nnc(C5CC5)o4)cc32)cc1`, the melting point was 198 to 199 °C. `COC(=O)C=Cc1cc(C)n(CCNC(C)=O)c1C` gave a melting point of 144 to 145 °C. In the case of `CCCCCc1c(C(C)C)nc(C(C)C)c(CNC)c1-c1ccc(F)cc1`, the melting point is reported as 77 to 79 °C. Compound `O=C1c2cccc([N+](=O)[O-])c2C2CC3(CCN12)OCCO3` (configuration not stated) has a melting point of 206 °C. In the case of `COC(=O)c1cc(N=[N+]=[N-])ccc1Nc1ccccc1`, the melting point is reported as 64 to 65 °C. Compound `CC(=NNC(=N)N)c1sc(-c2ccc(C3=CCCCC3)cc2)nc1C` has a melting point of 213 to 215 °C. For `COc1cccc(-c2ncc3n2C=CN(C)C3)c1`, the melting point was 211 to 214 °C. Work on `COC(=O)CCC(O)C(=O)OC(C)(C)C` (configuration not stated) yielded a melting point of 36 to 37 °C. For `CCCC(NC=O)C1(c2ccc(Cl)cc2)CCC1` (configuration not stated), the melting point was 97.5 to 98.5 °C. `CCC1(C)SC(N(C)C(=O)NC)=NN1C(=O)C(C)(C)C` (configuration not stated) showed a melting point of 124 to 127 °C. Compound `CCOc1ccc2c(c1C=NO)OCO2` has a melting point of 161 to 164 °C. Compound `O=Cc1ccc(N2CCN(c3ccncc3)CC2)cc1` has a melting point of 116 to 118 °C. With `Cn1ncc(C(=O)O)c1C(=O)Nc1ccn2nc(-c3cccc(F)n3)nc2c1` the melting point was > 290 °C. Compound `NC(=O)CC(O)(c1ccc(Br)cc1)c1cccnc1` (configuration not stated) has a melting point of 213 to 214 °C. `O=C1N[C@H](Cc2cccc(C(F)(F)F)c2)[C@H](c2ccc(F)cc2)O1` (racemic) showed a melting point of 177 to 178 °C. For `COc1ccc(CN(C(=O)C2CCCc3ccc(OC)cc32)c2ccc(C(C)C)cc2)cc1` (configuration not stated), the melting point was 83 to 85 °C. For `COC(=O)Cc1csc(NC(=O)C(CC2CCCC2)c2ccc(Cl)c(Cl)c2)n1` (configuration not stated), the melting point was 150 to 151 °C. `COC(=O)c1cc(-c2ccc(C)c(F)c2)n[nH]c1=O` gave a melting point of 206 to 207 °C. `OCCc1ccc(OCc2ccccc2)cc1` showed a melting point of 85 °C. For `CC[C@@H](C)NC1=NS(=O)(=O)c2sc(Cl)cc2N1`, the melting point was 215 to 220 °C. In the case of `O=C(O)COc1ccc(SCc2ccc(OCc3ccc(Cl)c(Cl)c3)cc2)c2c1CCC2`, the melting point is reported as 168 °C. For `CC(O)(c1ccccc1)C1CCNCC1` (configuration not stated), the melting point was 172 to 175 °C. In the case of `CCCCCCCCCCCSCCCN=C=O`, the melting point is reported as 91 to 93 °C. Work on `CCCCOc1cc(C=CC(=O)N2CCN(c3ccc(NC(=N)c4cccs4)cc3)CC2)cc(OCCCC)c1O` yielded a melting point of 65 to 68 °C. `Cc1nn(C)c(Cl)c1S(N)(=O)=O` showed a melting point of 173 °C. `CC1CCN(S(=O)(=O)Nc2cc(C(c3cc(F)ccc3F)S(=O)(=O)c3ccc(Cl)cc3)c(Cl)cn2)CC1` (configuration not stated) gave a melting point of 215 to 218 °C. `Cn1cccc1CNCC1(c2cccc(C(F)(F)F)c2)CCN(C(=O)CN2CCN(c3cnccn3)CC2)CC1` showed a melting point of 104 to 105 °C. In the case of `Nc1cccc(OCCN2CCCCC2)c1`, the melting point is reported as 115 °C. `O=C(O)c1nccc(-c2ccccc2)c1C(=O)O` showed a melting point of 146 to 148 °C. Work on `CCCCCCCCN=C=O` yielded a melting point of 60 to 62 °C. Work on `Cc1cccc(-n2nc(C)cc2-c2ccnc(NCCc3ccccc3)c2)c1` yielded a melting point of 86 to 87 °C. Compound `c1ccc(C2=Nc3ccccc3-n3ccc4cccc2c43)cc1` has a melting point of 128 to 136 °C. Work on `COC(=O)c1cc(OCc2ccccc2)nn1-c1ccccc1` yielded a melting point of 53 to 54 °C. For `CCNC=C(C(=O)C=Cc1ccc2c(c1)OCO2)C(=O)OC`, the melting point was 124 to 125 °C. Compound `Nc1c(N=O)c(=O)n(CCC2=CCCCC2)c(=O)n1CCC1=CCCCC1` has a melting point of 220 to 222 °C. With `Cc1cc(NC(=O)c2cccc(CCc3cccnc3)c2)ccc1C(C)C` the melting point was 143 to 144 °C. For `COC(=O)CCCC=C(c1cc(C)c2oc(=O)n(C)c2c1)c1cc(C)c2oc(=O)n(C)c2c1`, the melting point was 164 to 165 °C.
